Measurements as given in patent publication US10201558B2, “Compositions of selenoorganic compounds and methods of use thereof” (Alltech, Inc., priority 2014, dated 2019).
Entries after “also recorded” stand apart in the source; their conditions may differ.

What was measured:
PPARG = assay: QRT-PCR of PPARG mRNA in IMR-32 cells (normal, control KD, FOXO4 KD); format: cell-based, human
Experimental: (§1) IMR-32 cells were cultured on 12-well plates for 24 hours and then incubated with FOXO4 siRNA lentiviruses (SC-29650V, Santa Cruz) or control siRNA lentiviruses (sc-108080, Santa Cruz) in the presence of Polybrene (5 μg/ml, Santa Cruz) for 24 hours according to the manufacturer's protocol. These lentiviral siRNA-transfected cells were amplified in normal media for 3 days and then incubated with puromycin for 9-14 days to obtain the stable Control KD (stably transfected with the control siRNAs) and FOXO4KD (stably transfected with Foxo4 siRNAs) cells. These control and Foxo4 KD cells were subjected to cell survival, mitochondrial potential and RNA analysis.
(§2) Human IMR-32 cells were seeded on gelatinized 6-well (6.5×10^5 cells/well) or 24-well (1.3×10^5 cells/well) plates. Cells were treated with control (0 ppb) or various compounds for 6 hours or 24 hours. Total RNA from these cells was isolated using Trizol (Invitrogen) according to the manufacturer's protocol, and then incubated with DNase I to remove any potential contaminated genomic DNA. Then RNA samples were subjected to real-time PCR analysis using the Applied-Bioscience's RT kit and predesigned Taqman probes (Invitrogen), as described previously (Lan et al EMBO J 2003). The mRNA levels of UCP1, UCP2, UCP3, SLC25A27 (UCP4), SLC25A14 (UCP5), PSEN1, Nicastrin, GSK3B, MAPK11-14, PPARG, APOE, RCAN1, RCAN1.1, G6PC, INSR, IGF1R and FOXO4 were measured. Three to six samples were analyzed in each treatment group. Data were normalized by Actin B (ACTB) or Glyceraldehyde Phosphate Dehydrogenase (GAPDH) mRNA levels in each sample and are presented as mean±SEM of 3-6 samples.
To explore this possibility, IMR-32 cells were treated with 150 ppb Compound C, Compound D or Compound E (150 ppb) for 6 hours and 24 hours, and then subjected to Western blot and QRT-PCR analyses. […] Therefore, Compound C and Compound D are downregulators of PPARG in IMR-32 cells at both mRNA and protein levels. […]

[1] = tested on: phosphorylated FOXO3 in AML-12 cells; assay: Phosphorylated FOXO in AML-12 liver cells; format: cell-based, mouse; details: 150 ppb, 6 hours and 24 hours
Experimental: Expression of phosphorylated FOXO1/3/4 in a non-neuronal mouse AML-12 liver cell line was examined Tests were performed at the same time and under the same experimental conditions as the human IMR-32 cells.

MAPK13 = assay: QRT-PCR of MAPK13 mRNA in control and FOXO4 KD IMR-32 cells; format: cell-based, human; details: 24 hours
Experimental: as §1, §2
Normal control cells and FOXO4KD cells were incubated with two doses of Compound C for 24 hours, and subjected to QRT-PCR analysis of the MAPK11-14 genes. The relative mRNA expression of all four MAPK genes in normal control IMR-32 cells was assessed. […] Data in Compound C-treated control and FOXO4 KD cells were normalized by their levels in control and FOXO4KD cells, respectively. Mean±SEM of indicated number of samples in the bar graphs. […]

[2] = tested on: Aβ plaque deposits (Aβ1-42); assay: IHC analysis of amyloid deposits in the brains of APP/PS1 mice; format: in vivo, mouse; details: diet with 1 ppm Se from Compound C, 6 to 12 months of age
Experimental: (§3) Male APPΔNLh/ΔNLh×PS1P246 L/246 L knock-in model mice of Alzheimer's disease (abbreviated APP/PS1) were genotyped using standard primers for human APP (Amyloid Precursor Protein) and human PS1 (PSEN1). These APP/PS1 mice starting at the age of 6 months, were fed either a control diet containing normal levels of selenium (0.3 ppm from plant and inorganic selenium salt sources) or an experimental diet containing Compound C (the control diet to which was added 1 ppm Se from Compound C) for 6 months.
At 12 months of age, the mice were euthanized and the brains quickly removed, the cerebellum isolated and the hemispheres snap-frozen in liquid nitrogen and then stored at −80° C. for further immunohistochemistry (IHC), protein and RNA analysis. All procedures conducted on these animal studies were pre-approved by the University of Kentucky IACUC committee.
Frozen brain tissues were sectioned using a Leica-CM1900 cryostat (Leica Microsystems Inc., Bannockburn, Ill.), as described previously (Zhang et al, 2008. Biochem Biophys Res Commun). These frozen brain sections were subjected to immunohistochemistry staining of Aβ plaques using a specific polyclonal antibody against Aβ1-42 (Abcam) and the Rabbit ImmunoCruz Staining System (Santa Cruz Biotechnology, Santa Cruz, Calif.) according to the manufacturer's protocol. […]

phosphorylated-p38 = assay: Western blot of phosphorylated-p38 in APP/PS1 mouse brains; format: in vivo; details: APP/PS1 mice, Compound C diet vs control diet
Experimental: as §3, with “months. […]” for “months.”
Frozen hemispheres of control- and Compound C-treated APP/PS1 mice were weighed and homogenized in PBS buffer, and then subsequently extracted with RIPA buffer (Sigma) containing complete proteinase and phosphatase inhibitors (Fisher Scientific). Protein levels in the samples were determined by micro-BCA protein analysis according to the manufacturer's protocol. […] Positive signals on the membrane blots were detected using Amersham's enhanced chemiluminescence Western Blotting Prime Detection reagents (GE healthcare Lifescience, Pittsburgh, Pa.). Images of these luminescence signals on the membrane blots were captured using the LI-COR Odyssey Fc Image system (Lincoln, Nebr.). Protein band densities in Western blots were determined using NIH Image J software, and then normalized by Actb levels in each samples to obtain the protein levels.

SMILES: C[Se]C[C@H]1O[C@@H](n2cnc3c(N)ncnc32)C(O)C1O (stereo in doubt) [Compound C, 5′-deoxy-5′-methylselenoadenosine]
- PPARG mRNA expression (PPARG; FOXO4KD cells, 75 ppb and 150 ppb, 24 hours): not significantly altered
- PPARG mRNA levels (PPARG; IMR-32 cells, 150 ppb, 6 hours): significantly lower
- PPARG mRNA levels (PPARG; control normal cells, 75 ppb and 150 ppb, 24 hours): attenuated
- phosphorylation of FOXO3 [1]: did not affect
- MAPK13 mRNA levels (MAPK13; FOXO4KD cells, 75 ppb and 150 ppb): none of the mRNA levels of the four MAPK genes in FOXO4KD cells were significantly altered
- MAPK13 mRNA levels (MAPK13; control KD cells, 75 ppb): trend towards decreased
- MAPK13 mRNA levels (MAPK13; control KD cells, 150 ppb): significantly decreased
- Aβ plaque deposits in the brain cortex (IHC, Aβ1-42 staining) [2]: much fewer and/or weaker-staining
- Aβ plaque deposits in the brain hippocampus (IHC, Aβ1-42 staining) [2]: much fewer and/or weaker-staining
- phosphorylated-p38 protein levels in the brains (phosphorylated-p38): reduced; also recorded: decreased
